Tests used:
human cervical lesions = settings: EGCG tablets (200 mg), 8-12 weeks, cited from earlier work
p53 protein = settings: cited from earlier work
[1] = system: epithelial cervical cell line infected with high-risk HPV (TLC1 and cervical cancer lines such as Hela and Me180); settings: dose-dependent manner; cited from earlier work
Hela cells = test: Annexin V/7-AAD staining, apoptosis in Hela cells; type: cell-based, human; settings: 48 hr, EGCG 50 mcg/ml, Fol 900 nM, B12 1000 nM, Hyal 10 mcg/ml, FIG. 1
Procedure: The combined action of epigallocatechin gallate (EGCG) and at least one the following other agents: folic acid, vitamin B12, hyaluronic acid, in respect to the single substance, has been tested in vitro in immortalized cervical cancer cell line (HeLa).
The cells were seeded in […] flasks in low glucose DMEM, to which had been added FBS (Fetal Bovine Serum) 10%, L-Glu (L-glutamine) 1%, Pen/Strep (penicillin/streptomycin) 1%. The cells were kept in an incubator at a temperature of 37° C., 5% carbon dioxide and 95% humidity and maintained in culture, as described above, until they reached 50% confluency. On the day of the experiment the cells were treated as follows: • 1. […]
Apoptosis (cell death) was evaluated after 48 hours of treatment using the Annexin V kit. The expression of onco-suppressor genes (p53 and/or pRB) and/or viral E6 and/or E7 genes was evaluated after 48 hours of treatment through use of real time PCR. […]
Hela cells were cultured at confluence into 25 cm^2 flasks (Falcon, Becton Dickinson Labware, Franklin Lakes, NJ, USA) in complete medium. […] After 48 hr of treatment, cell status was assessed through use of the FITC Annexin V Apoptosis Detection Kit I according to the instructions of the manufacturer (BD Pharmingen™). […]

viral protein E7 = settings: cited from earlier work
cell model in vitro = settings: cited from earlier work
vaginal atrophy = settings: 12 post-menopausal women, 3-month treatment; cited from earlier work
[2] = cytology, colposcopy, histology, HPV DNA test

Substance	treated women with improvement of general clinical status (human cervical lesions; 88 women) [%]	women with moderate lesions responding positively to the treatment (human cervical lesions; [2]) [%]	women with serious lesions responding positively to the treatment (human cervical lesions; [2]) [%]	level of p53 protein expression (p53 protein)	apoptosis, i.e., cell death [1]	cellular growth [1]	apoptosis (cell death) compared to control (Hela cells)	level of viral protein E7 expression (viral protein E7)	process of wound healing in comparison with the control (cell model in vitro)	mucous membrane (vaginal atrophy)	symptoms related to vaginal atrophy (itching, burning, and dyspareunia) (vaginal atrophy)
(−)-epigallocatechin gallate [EGCG]	60	100	71	increases the level of p53 protein expression	promotes apoptosis	inhibits cellular growth	no differences in apoptosis levels	reduces that of the viral protein E7	–	–	–
hyaluronic acid	–	–	–	–	–	–	significantly increased apoptosis	–	significantly accelerates the process of wound healing	restores the mucous membrane	dramatically reducing symptoms
